pKi: −log10 of the molar value. Read-outs that look alike come from different tables or passages of the source.
Molecular target: T1, HIV-1 protease (Human immunodeficiency virus type 1 group M subtype B, UniProt P04585)
T1 construct: The protease (or proteinase), consisting of only 99 amino acids, is among the smallest enzymes known
Assay: In vitro HIV protease inhibitory assay (HIV Protease FITC Assay)
Format: biochemical
Details: for inhibition at 0.123 µM / inhibition at 0.37 µM / inhibition at 1.1 µM / inhibition at 3.3 µM / inhibition at 10 µM / inhibition at 30 µM: read-out: HIV-1 Protease % Inhib
Summary of the method: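 Biotin/FITC-labelled peptide substrate cleaved by HIV-1 protease for 1 h at room temperature in the dark, in 0.1 M sodium acetate pH 5.5, 1.0 M NaCl, 0.05% NP-40. Uncleaved substrate captured on avidin beads and separated by filtration; fluorescence gave % inhibition.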

| SMILES | pKi (read-out: HIV-1 FITC Ki) | inhibition at 0.123 µM [%] | inhibition at 0.37 µM [%] | inhibition at 1.1 µM [%] | inhibition at 3.3 µM [%] | inhibition at 10 µM [%] | inhibition at 30 µM [%] | inhibition at 0.123 µM (HIV-1 Dose 0.123 uM) [%] | inhibition at 0.37 µM (HIV-1 Dose 0.370 uM) [%] | inhibition at 1.1 µM (HIV-1 Dose 1.100 uM) [%] | inhibition at 3.3 µM (HIV-1 Dose 3.300 uM) [%] | inhibition at 10 µM (HIV-1 Dose 10.000 uM) [%] | inhibition at 30 µM (HIV-1 Dose 30.000 uM) [%] | pKi |
| --- | --- | --- | --- | --- | --- | --- | --- | --- | --- | --- | --- | --- | --- | --- |
| CCCC1(CCc2ccccc2)CC(O)=C(C(/C=C/c2ccccc2)c2ccccc2)C(=O)O1 (centres unmarked) [Example 170, 3-(1,3-Diphenyl-2-propenyl)-5,6-dihydro-4-hydroxy-6-(2-phenylethyl)-6-propyl-, (E)-2H-pyran-2-one] | 7.30 | < 10 | 29.6 | 62.1 | 86.7 | 95.1 | 93 |  |  |  |  |  |  |  |
| CCCC1(CCc2ccccc2)CC(O)=C(C(CCc2ccccc2)c2ccccc2)C(=O)O1 (centres unmarked) [Example 171, 3-(1,3-Diphenylpropyl)-5,6-dihydro-4-hydroxy-6-(2-phenylethyl)-6-propyl-, 2H-pyran-2-one] | 7.30 | 11.8 | 39.5 | 68.9 | 82.2 | 96.8 | 94.6 |  |  |  |  |  |  |  |
| O=C1OC(Cc2ccccc2)(c2ccccc2)CC(O)=C1C(/C=C/c1ccccc1)c1ccccc1 (centres unmarked) [Example 172, 3-(1,3-Diphenyl-2-propenyl)-5,6-dihydro-4-hydroxy-6-phenyl-6-(phenylmethyl)-2H-pyran-2-one] |  |  |  |  |  |  |  | < 10 | < 10 | 11.7 | 29.5 | 56.8 | 60.6 |  |
| CCCC1(CCc2ccccc2)CC(O)=C(/C(=C/c2ccccc2)c2ccccc2)C(=O)O1 (centres unmarked) [Example 173, 3-(1,2-Diphenylethenyl)-5,6-dihydro-4-hydroxy-6-(2-phenylethyl)-6-propyl-, (E)-2H-pyran-2-one] |  |  |  |  |  |  |  | < 10 | < 10 |  | < 10 | 39.2 | 58.8 |  |
| C=CC(C1=C(O)CC(CCC)(CCc2ccccc2)OC1=O)c1ccccc1 (centres unmarked) [Example 174, 5,6-Dihydro-4-hydroxy-6-(2-phenylethyl)-3-(1-phenyl-2-propenyl)-6-propyl-2H-pyran-2-one] | 7.80 |  |  |  |  |  |  | 23.5 | 52.8 | 81.8 | 102 | 110 | 106 |  |
| CCCC1(CCc2ccccc2)CC(O)=C(C(CC)c2ccccc2)C(=O)O1 (centres unmarked) [Example 175, 5,6-Dihydro-4-hydroxy-6-(2-phenylethyl)-3-(1-phenylpropyl)-6-propyl-2H-pyran-2-one] |  | 19.7 | 46.7 | 78.8 | 99.3 | 107 | 105 |  |  |  |  |  |  | 7.46 |
| CCCC1(Cc2ccccc2)CC(O)=C(C(C=Cc2ccccc2)c2ccccc2)C(=O)O1 (centres unmarked) [Example 176, 3-(1,3-Diphenyl-2-propenyl)-5,6-dihydro-4-hydroxy-6-(phenylmethyl)-6-propyl-2H-pyran-2-one] |  |  |  |  |  |  |  | < 10 | < 10 | 28.9 | 62.3 | 88.7 | 101 |  |
| CCCC1(Cc2ccccc2)CC(O)=C(C(CCc2ccccc2)c2ccccc2)C(=O)O1 (centres unmarked) [Example 177, 3-(1,3-Diphenylpropyl)-5,6-dihydro-4-hydroxy-6-(phenylmethyl)-6-propyl-2H-pyran-2-one] |  |  |  |  |  |  |  | < 10 | 19.7 | 48.2 | 74.2 | 89.3 | 95 |  |
| CCC(Cc1ccccc1)c1cc(O)c(C(c2cccc(NS(=O)(=O)c3ccccc3)c2)C2CC2)c(=O)o1 (stereo not drawn) [Example 178, 3-(α-Cyclopropyl-meta-(phenylsulfonylamino)benzyl)-6-(α-ethylphenethyl)-4-hydroxy-2H-pyran-2-one] | 7.76 |  |  |  |  |  |  | 21.6 | 61.9 | 83.1 | 95.5 | 104 | 107 |  |
| CCCS(=O)(=O)Nc1cccc(C(c2c(O)cc(C(CC)Cc3ccccc3)oc2=O)C2CC2)c1 (stereo not drawn) [Example 179, 3-(α-Cyclopropyl-meta-(propylsulfonylamino)benzyl)-6-(α-etylphenethyl)-4-hydroxy-2H-pyran-2-one] | 7.40 |  |  |  |  |  |  | 23.7 | 61.9 | 77.9 | 94.4 | 95.1 | 102 |  |
| CCC(Cc1ccccc1)c1cc(O)c(C(c2cccc(NS(=O)(=O)/C=C/c3ccccc3)c2)C2CC2)c(=O)o1 (stereo not drawn) [Example 180, 3-(α-Cyclopropyl-meta-((E)-2-phenylethenylsulfonylamino)benzyl)-6-(α-ethylphenethyl)-4-hydroxy-2H-pyran-2-one] | 7.63 |  |  |  |  |  |  | 32 | 55.9 | 80.5 | 91.9 | 99.5 | 98 |  |
| CCC(Cc1ccccc1)c1cc(O)c(C(c2cccc(NS(=O)(=O)c3ccc(Br)cc3)c2)C2CC2)c(=O)o1 (stereo not drawn) [Example 181, 3-(α-Cyclopropyl-meta-(4-bromophenylsulfonylamino)benzyl)-6-(α-ethylphenethyl)-4-hydroxy-2H-pyran-2-one] | 7.72 |  |  |  |  |  |  | 32.6 | 64.5 | 82.4 | 95.3 | 101 | 95.5 |  |
| CCC(Cc1ccccc1)c1cc(O)c(C(c2cccc(NS(=O)(=O)c3cc(Cl)ccc3Cl)c2)C2CC2)c(=O)o1 (stereo not drawn) [Example 182, 3-(α-Cyclopropyl-meta-(2,5-dichlorophenylsulfonylamino)benzyl)-6-(α-ethylphenethyl)-4-hydroxy-2H-pyran-2-one] |  |  |  |  |  |  |  | < 10 | 15 | 45.7 | 71.9 | 94.9 | 96.5 |  |
| CCC(Cc1ccccc1)c1cc(O)c(C(c2cccc(NS(=O)(=O)c3ccc(C(C)(C)C)cc3)c2)C2CC2)c(=O)o1 (stereo not drawn) [Example 183, 3-(α-Cyclopropyl-meta-(4-tert-butylphenylsulfonylamino)benzyl)-6-(α-ethylphenethyl)-4-hydroxy-2H-pyran-2-one] |  |  |  |  |  |  |  | < 10 | 11.9 | 28.2 | 60.6 | 88.9 | 90.8 |  |
| CCC(Cc1ccccc1)c1cc(O)c(C(c2cccc(NS(=O)(=O)c3ccc(C#N)cc3)c2)C2CC2)c(=O)o1 (stereo not drawn) [Example 184, 3-(α-Cyclopropyl-meta-(4-cyanophenylsulfonylamino)benzyl)-6-(α-ethylphenethyl)-4-hydroxy-2H-pyran-2-one] | 8.24 |  |  |  |  |  |  | 65 | 87 | 94.5 | 99 | 102 | 102 |  |
| CCC(Cc1ccccc1)c1cc(O)c(C(c2cccc(NS(=O)(=O)c3ccc(OC)cc3)c2)C2CC2)c(=O)o1 (stereo not drawn) [Example 185, 3-(α-Cyclopropyl-meta-(4-methoxyphenylsulfonylamino)benzyl)-6-(α-ethylphenethyl)-4-hydroxy-2H-pyran-2-one] |  |  |  |  |  |  |  | 40.5 | 71.4 | 89.1 | 95.9 | 103 | 92.9 |  |

Reference: EP1203770A1 (priority 1992, dated 1994)
